Results from patent publication US20240208928A1, “NOVEL COMPOUNDS” (Hoffmann-La Roche Inc., priority 2021, published 2024).

Tests used:
NLRP3 [1] = biological target: T1, NLRP3 (Homo sapiens, UniProt Q96P20); test: THP-1 cells pyroptosis assay; format: cell-based; set-up: Seed THP-1 cells (25,000 cells/well) containing 1.0 μg/ml LPS; host or cells: THP-1 cells, LPS-primed, nigericin-stimulated; conditions: 1.0 μg/ml LPS, nigericin 5 μM, resazurin readout
Protocol: The cells were routinely passaged and grown to confluency (˜10^6 cells/ml). On the day of the experiment, THP-1 cells were harvested and resuspended into RPMI medium (without FBS). […] To this diluted cell solution was added LPS (Sigma #L4524) to give a 1 μg/ml Final Assay Concentration (FAC). 40 μl of the final preparation was aliquoted into each well of a 96-well plate. The plate thus prepared was used for compound screening.
The following method step-by-step assay was followed for compound screening. • 1. […] Incubate for 3 hrs at 37° C., 5% CO2 • 4. Add 5 μl nigericin (Sigma #N7143) (FAC 5 μM) to all wells • 5. Incubate for 1 hr at 37° C., 5% CO2 • 6. At the end of the incubation period, spin plates at 300×g for 3 mins and remove supernatant • 7. Then add 50 μl of resazurin (Sigma #R7017) (FAC 100 μM resazurin in RPMI medium without FBS) and incubate plates for a further 1-2 hrs at 37° C. and 5% CO2 • 8. […] IC50 data is fitted to a non-linear regression equation (log inhibitor vs response-variable slope 4-parameters)

NLRP3 [2] = biological target: T1, NLRP3; test: Human whole blood IL-1β release assay; format: cell-based; set-up: Human whole blood in Li-heparin tubes was obtained from healthy donors; from tissue; host or cells: human whole blood from healthy donors, LPS-primed, nigericin-stimulated; conditions: 1 μg/ml LPS, nigericin 10 μM, IL-1β by AlphaLisa
Protocol: For systemic delivery, the ability to inhibit NLRP3 when the compounds are present within the bloodstream is of great importance. For this reason, the NLRP3 inhibitory activity of a number of compounds in human whole blood was investigated in accordance with the following protocol.
Human whole blood in Li-heparin tubes was obtained from healthy donors from a volunteer donor panel. • 1. […] Incubate for 3 hrs at 37° C., 5% CO2 • 4. Add 10 μl nigericin (Sigma #N7143) (10 μM FAC) to all wells • 5. Incubate for 1 hr at 37° C., 5% CO2 • 6. At the end of the incubation period, spin plates at 300×g for 5 mins to pellet cells and remove 20 μl of supernatant and add to 96-well v-bottom plates for IL-1β analysis (note: these plates containing the supernatants can be stored at −80° C. to be analysed at a later date) • 7. IL-1β was measured according to the manufacturer protocol (Perkin Elmer-AlphaLisa IL-1 Kit AL220F-5000) • 8. IC50 data is fitted to a non-linear regression equation (log inhibitor vs response-variable slope 4-parameters)

T1 sequence (Q96P20 whole entry): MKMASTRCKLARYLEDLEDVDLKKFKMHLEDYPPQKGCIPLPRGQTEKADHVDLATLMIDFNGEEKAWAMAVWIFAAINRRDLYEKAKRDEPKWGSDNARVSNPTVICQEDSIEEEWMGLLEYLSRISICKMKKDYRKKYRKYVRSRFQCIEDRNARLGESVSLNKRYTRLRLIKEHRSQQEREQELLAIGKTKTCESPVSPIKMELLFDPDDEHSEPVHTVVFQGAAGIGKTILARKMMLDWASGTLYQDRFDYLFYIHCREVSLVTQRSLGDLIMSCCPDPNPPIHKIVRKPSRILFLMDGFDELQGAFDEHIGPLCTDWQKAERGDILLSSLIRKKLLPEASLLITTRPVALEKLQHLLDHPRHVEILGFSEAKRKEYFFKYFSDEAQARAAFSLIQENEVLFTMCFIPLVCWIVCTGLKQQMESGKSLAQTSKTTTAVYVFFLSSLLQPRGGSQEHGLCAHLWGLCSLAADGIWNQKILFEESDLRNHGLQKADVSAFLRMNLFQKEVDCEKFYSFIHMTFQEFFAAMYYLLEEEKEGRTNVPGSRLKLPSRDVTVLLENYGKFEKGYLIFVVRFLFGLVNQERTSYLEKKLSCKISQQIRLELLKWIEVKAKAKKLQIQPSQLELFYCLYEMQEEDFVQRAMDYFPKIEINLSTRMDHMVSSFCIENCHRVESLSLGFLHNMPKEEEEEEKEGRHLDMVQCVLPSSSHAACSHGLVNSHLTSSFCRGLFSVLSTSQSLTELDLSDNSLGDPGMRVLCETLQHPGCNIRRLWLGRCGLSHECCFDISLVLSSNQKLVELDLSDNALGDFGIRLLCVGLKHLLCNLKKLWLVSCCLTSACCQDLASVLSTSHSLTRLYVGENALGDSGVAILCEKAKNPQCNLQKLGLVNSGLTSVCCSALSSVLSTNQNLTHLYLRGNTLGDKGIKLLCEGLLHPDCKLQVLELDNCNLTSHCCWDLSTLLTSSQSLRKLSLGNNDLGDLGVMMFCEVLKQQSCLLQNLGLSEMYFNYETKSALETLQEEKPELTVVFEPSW

## CCN1CCC[C@@H](Nc2nnc(-c3ccc(C(C)(F)F)cc3O)n(C)c2=O)C1 [Example 24, 3-[4-(1,1-Difluoroethyl)-2-hydroxy-phenyl]-6-[[(3R)-1-ethyl-3-piperidyl]amino]-4-methyl-1,2,4-triazin-5-one]
NLRP3 [1]
  IC50: 106 nM
NLRP3 [2]
  IC50: 108 nM

## Cn1c(-c2ccc(C(F)(F)F)cc2O)nnc(NC2CC3CNC2C3)c1=O (centres unmarked) [Example 13, 6-(2-Azabicyclo[2.2.1]heptan-6-ylamino)-3-[2-hydroxy-4-(trifluoromethyl)phenyl]-4-methyl-1,2,4-triazin-5-one;2,2,2-trifluoroacetic Acid]
NLRP3 [1]
  IC50: > 1000 nM

## Cn1c(-c2ccc(C(F)(F)F)cc2O)nnc(N[C@@H]2CCCNC2)c1=O [Example 3, 3-[2-Hydroxy-4-(trifluoromethyl)phenyl]-4-methyl-6-[[(3R)-3-piperidyl]amino]-1,2,4-triazin-5-one;2,2,2-trifluoroacetic Acid]
NLRP3 [1]
  IC50: 170 nM

## CCN1C[C@H](C)C[C@@H](Nc2nnc(-c3ccc(C(F)(F)F)cc3O)n(C)c2=O)C1 [Example 15, 6-[[(3R,5R)-1-Ethyl-5-methyl-3-piperidyl]amino]-3-[2-hydroxy-4-(trifluoromethyl)phenyl]-4-methyl-1,2,4-triazin-5-one;2,2,2-trifluoroacetic Acid]
NLRP3 [1]
  IC50: > 1000 nM

## CCN1CCC[C@@H](Nc2nnc(-c3ccc(C(C)=O)cc3O)n(C)c2=O)C1 [Example 25, 3-(4-Acetyl-2-hydroxy-phenyl)-6-[[(3R)-1-ethyl-3-piperidyl]amino]-4-methyl-1,2,4-triazin-5-one]
NLRP3 [1]
  IC50: 9.3 nM
NLRP3 [2]
  IC50: 15 nM

## CCN1CCC[C@@H](Nc2nnc(-c3ccc(C#N)cc3O)n(C)c2=O)C1 [Example 32, 4-[6-[[(3R)-1-Ethyl-3-piperidyl]amino]-4-methyl-5-oxo-1,2,4-triazin-3-yl]-3-hydroxy-benzonitrile; formic acid]
NLRP3 [1]
  IC50: 809 nM

## Cn1c(-c2ccc(C(F)(F)F)cc2O)nnc(N[C@H]2C[C@@](C)(O)C2)c1=O [Example 11, 6-(((1S,3S)-3-Hydroxy-3-methylcyclobutyl)amino)-3-(2-hydroxy-4-(trifluoromethyl)phenyl)-4-methyl-1,2,4-triazin-5(4H)-one]
NLRP3 [1]
  IC50: 391 nM
NLRP3 [2]
  IC50: 190 nM

## Cn1c(-c2ccc(C(F)(F)F)cc2O)nnc(NC2CCCN3CCCC23)c1=O (centres unmarked) [Example 7, 6-(1,2,3,5,6,7,8,8a-Octahydroindolizin-8-ylamino)-3-[2-hydroxy-4-(trifluoromethyl)phenyl]-4-methyl-1,2,4-triazin-5-one;2,2,2-trifluoroacetic Acid]
NLRP3 [1]
  IC50: 51 nM
NLRP3 [2]
  IC50: 86 nM

## CN1CCC[C@@H](Nc2nnc(-c3ccc(C(F)(F)F)cc3O)n(C)c2=O)C1 [Example 6, (R)-3-(2-Hydroxy-4-(trifluoromethyl)phenyl)-4-methyl-6-((1-methylpiperidin-3-yl)amino)-1,2,4-triazin-5(4H)-one;2,2,2-trifluoroacetic Acid]
NLRP3 [1]
  IC50: 24 nM
NLRP3 [2]
  IC50: 15 nM

## CCN1CCC[C@@H](Nc2nnc(-c3c(C)cc(C(F)(F)F)cc3O)n(C)c2=O)C1 (single isomer, unassigned) [Example 29, (M or P)-6-[[(3R)-1-ethyl-3-piperidyl]amino]-3-[2-hydroxy-6-methyl-4-(trifluoromethyl)phenyl]-4-methyl-1,2,4-triazin-5-one]
NLRP3 [1]
  IC50: 7.8 nM

## Cn1c(-c2ccc(C(F)(F)F)cc2O)nnc(NCc2cccc(O)c2)c1=O [Example 18, 6-[(3-Hydroxyphenyl)methylamino]-3-[2-hydroxy-4-(trifluoromethyl)phenyl]-4-methyl-1,2,4-triazin-5-one;2,2,2-trifluoroacetic Acid]
NLRP3 [1]
  IC50: 1.2 nM
NLRP3 [2]
  IC50: 8.1 nM

## CCN1CCC[C@@H](Nc2nnc(-c3ccc(S(F)(F)(F)(F)F)cc3O)n(C)c2=O)C1 [Example 31, 6-[[(3R)-1-Ethyl-3-piperidyl]amino]-3-[2-hydroxy-4-(pentafluoro-λ6-sulfanyl)phenyl]-4-methyl-1,2,4-triazin-5-one]
NLRP3 [1]
  IC50: 115 nM

## CN1C2CCC(Nc3nnc(-c4ccc(C(F)(F)F)cc4O)n(C)c3=O)C1CC2 (centres unmarked) [Example 4, 3-[2-Hydroxy-4-(trifluoromethyl)phenyl]-4-methyl-6-[(8-methyl-8-azabicyclo[3.2.1]octan-2-yl)amino]-1,2,4-triazin-5-one;2,2,2-trifluoroacetic Acid]
NLRP3 [1]
  IC50: 96 nM
NLRP3 [2]
  IC50: 120 nM

## CCN1CCC[C@@H](Nc2nnc(-c3ccc(C(F)(F)F)cc3O)[nH]c2=O)C1 [Example 35, 6-[[(3R)-1-Ethyl-3-piperidyl]amino]-3-[2-hydroxy-4-(trifluoromethyl)phenyl]-4H-1,2,4-triazin-5-one;2,2,2-trifluoroacetic Acid]
NLRP3 [1]
  IC50: 459 nM

## CN1CC(Nc2nnc(-c3ccc(C(F)(F)F)cc3O)n(C)c2=O)CC(C)(C)C1 (centres unmarked) [Example 9, 3-[2-Hydroxy-4-(trifluoromethyl)phenyl]-4-methyl-6-[(1,5,5-trimethyl-3-piperidyl)amino]-1,2,4-triazin-5-one;2,2,2-trifluoroacetic Acid]
NLRP3 [1]
  IC50: 868 nM

## CCN1C[C@@H](C)C[C@@H](Nc2nnc(-c3ccc(C(F)(F)F)cc3O)n(C)c2=O)C1 [Example 14, 6-[[(3R,5S)-1-Ethyl-5-methyl-3-piperidyl]amino]-3-[2-hydroxy-4-(trifluoromethyl)phenyl]-4-methyl-1,2,4-triazin-5-one;2,2,2-trifluoroacetic Acid]
NLRP3 [1]
  IC50: 765 nM

## CN1CCC[C@@H](Nc2nnc(-c3ccc(OC(F)(F)F)cc3O)n(C)c2=O)C1 [Example 34, 3-[2-Hydroxy-4-(trifluoromethoxy)phenyl]-4-methyl-6-[[(3R)-1-methyl-3-piperidyl]amino]-1,2,4-triazin-5-one]
NLRP3 [1]
  IC50: 13.1 nM
NLRP3 [2]
  IC50: 35.2 nM

## Cn1c(-c2ccc(C(F)(F)F)cc2O)nnc(N[C@@H]2CCC(C)(C)NC2)c1=O [Example 17, 6-[[(3R)-6,6-Dimethyl-3-piperidyl]amino]-3-[2-hydroxy-4-(trifluoromethyl)phenyl]-4-methyl-1,2,4-triazin-5-one;2,2,2-trifluoroacetic Acid]
NLRP3 [1]
  IC50: 683 nM

## CCCN1CCC[C@@H](Nc2nnc(-c3ccc(C(F)(F)F)cc3O)n(C)c2=O)C1 [Example 8, 3-[2-Hydroxy-4-(trifluoromethyl)phenyl]-4-methyl-6-[[(3R)-1-propyl-3-piperidyl]amino]-1,2,4-triazin-5-one;2,2,2-trifluoroacetic Acid]
NLRP3 [1]
  IC50: 53 nM
NLRP3 [2]
  IC50: 32 nM

## CCN1CCC[C@@H](Nc2nnc(-c3ccc(C(F)(F)F)cc3O)n(CC)c2=O)C1 [Example 22, 4-Ethyl-6-[[(3R)-1-ethyl-3-piperidyl]amino]-3-[2-hydroxy-4-(trifluoromethyl)phenyl]-1,2,4-triazin-5-one]
NLRP3 [1]
  IC50: 94 nM
NLRP3 [2]
  IC50: 48 nM

## CCN1CCC[C@@H](Nc2nnc(-c3ccc(C(F)(F)F)cc3O)n(C3CC3)c2=O)C1 [Example 20, 4-Cyclopropyl-6-[[(3R)-1-ethyl-3-piperidyl]amino]-3-[2-hydroxy-4-(trifluoromethyl)phenyl]-1,2,4-triazin-5-one;2,2,2-trifluoroacetic Acid]
NLRP3 [1]
  IC50: 726 nM

## CCN1CCC[C@@H](Nc2nnc(-c3c(C)cc(C(F)(F)F)cc3O)n(C)c2=O)C1 (single isomer, unassigned) [Example 30, (P or M)-6-[[(3R)-1-ethyl-3-piperidyl]amino]-3-[2-hydroxy-6-methyl-4-(trifluoromethyl)phenyl]-4-methyl-1,2,4-triazin-5-one]
NLRP3 [1]
  IC50: 751 nM

## CN1C[C@@H](F)C[C@@H](Nc2nnc(-c3ccc(C(F)(F)F)cc3O)[nH]c2=O)C1 [Example 36, 6-[[(3R,5S)-1-Methyl-5-fluoro-3-piperidyl]amino]-3-[2-hydroxy-4-(trifluoromethyl)phenyl]-4H-1,2,4-triazin-5-one;2,2,2-trifluoroacetic Acid]
NLRP3 [1]
  IC50: > 1000 nM

## CN1CC(Nc2nnc(-c3ccc(C(F)(F)F)cc3O)n(C)c2=O)C[C@H](F)C1 (stereo partly drawn) [Example 16, 6-[[(5S)-5-fluoro-1-methyl-3-piperidyl]amino]-3-[2-hydroxy-4-(trifluoromethyl)phenyl]-4-methyl-1,2,4-triazin-5-one;2,2,2-trifluoroacetic Acid]
NLRP3 [1]
  IC50: 860 nM

## CN1CCC[C@@H](Nc2nnc(-c3ccc(C(F)(F)F)cc3O)n(C)c2=O)C1 [Example 26, 3-[2-hydroxy-4-(trifluoromethyl)phenyl]-4-methyl-6-[[(3R)-1-methyl-3-piperidyl]amino]-1,2,4-triazin-5-one]
NLRP3 [1]
  IC50: 10.3 nM
